Measured values taken from ChEMBL document CHEMBL5233263 (Eur J Med Chem, 2021).
Values belong to the compound of their own block, whether it stands above or below them.

How the values were obtained:
[1] = molecular target: T1, D(4) dopamine receptor (Homo sapiens) (UniProt P21917); experiment: Binding affinity to human D4R at 1 uM relative to control
T1 sequence (whole entry): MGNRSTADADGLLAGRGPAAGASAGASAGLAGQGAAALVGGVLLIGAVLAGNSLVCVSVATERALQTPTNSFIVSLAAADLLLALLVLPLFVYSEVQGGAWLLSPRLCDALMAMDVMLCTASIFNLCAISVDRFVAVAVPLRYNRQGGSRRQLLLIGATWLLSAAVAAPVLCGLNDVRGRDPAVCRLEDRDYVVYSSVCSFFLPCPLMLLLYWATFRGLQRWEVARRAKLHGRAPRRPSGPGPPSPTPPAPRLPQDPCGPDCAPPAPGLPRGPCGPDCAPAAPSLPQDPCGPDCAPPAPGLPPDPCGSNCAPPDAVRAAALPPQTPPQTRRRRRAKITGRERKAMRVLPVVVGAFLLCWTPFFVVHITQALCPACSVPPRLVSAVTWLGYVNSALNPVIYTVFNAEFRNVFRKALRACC

[2] = molecular target: T2, D(2) dopamine receptor (Homo sapiens, UniProt P14416); experiment: Binding affinity to D2R (unknown origin) assessed as inhibition constant
T2 sequence (P14416 whole entry): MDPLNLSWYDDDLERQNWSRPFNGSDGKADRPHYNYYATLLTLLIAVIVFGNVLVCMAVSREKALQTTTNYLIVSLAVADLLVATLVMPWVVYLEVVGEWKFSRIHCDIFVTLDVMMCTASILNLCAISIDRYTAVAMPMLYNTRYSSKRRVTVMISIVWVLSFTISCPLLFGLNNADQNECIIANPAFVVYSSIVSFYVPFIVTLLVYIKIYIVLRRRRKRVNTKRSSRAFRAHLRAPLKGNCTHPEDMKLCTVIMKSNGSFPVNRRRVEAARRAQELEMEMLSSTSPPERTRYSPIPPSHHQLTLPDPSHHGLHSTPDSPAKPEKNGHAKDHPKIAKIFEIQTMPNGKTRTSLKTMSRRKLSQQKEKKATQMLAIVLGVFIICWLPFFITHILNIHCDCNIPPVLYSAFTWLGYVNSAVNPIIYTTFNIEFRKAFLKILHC

[3] = molecular target: T3, D(3) dopamine receptor (Homo sapiens, UniProt P35462); experiment: Binding affinity to D3R (unknown origin) assessed as inhibition constant
T3 sequence (P35462 whole entry): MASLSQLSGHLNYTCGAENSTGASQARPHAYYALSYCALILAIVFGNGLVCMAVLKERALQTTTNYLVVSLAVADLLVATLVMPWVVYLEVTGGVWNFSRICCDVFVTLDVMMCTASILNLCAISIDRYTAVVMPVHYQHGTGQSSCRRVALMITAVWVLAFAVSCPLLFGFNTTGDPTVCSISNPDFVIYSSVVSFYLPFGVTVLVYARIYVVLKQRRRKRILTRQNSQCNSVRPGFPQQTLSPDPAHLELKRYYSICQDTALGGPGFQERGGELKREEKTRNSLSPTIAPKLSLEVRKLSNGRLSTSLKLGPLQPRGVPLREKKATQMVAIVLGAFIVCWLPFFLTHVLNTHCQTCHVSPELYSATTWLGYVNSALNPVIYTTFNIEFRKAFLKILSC

[4] = molecular target: T2, D(2) dopamine receptor; experiment: Binding affinity to human D2R assessed as inhibition constant
[5] = molecular target: T3, D(3) dopamine receptor; experiment: Binding affinity to human D3R assessed as inhibition constant
[6] = molecular target: T4, D(4) dopamine receptor (Homo sapiens, UniProt P21917); experiment: Displacement of [3H]-spiperone from human D4 receptor expressed in CHO cells assessed as inhibition constant; format: cell-based
T4 sequence (P21917 whole entry): T1 sequence (whole entry)

[7] = molecular target: T4, D(4) dopamine receptor; experiment: (§1) Displacement of [3H]-nemonapride from human D4 receptor expressed in CHO cells assessed as inhibition constant; format: cell-based
[8] = molecular target: T4, D(4) dopamine receptor; experiment: Binding affinity to human D4R assessed as inhibition constant
[9] = molecular target: T2, D(2) dopamine receptor; experiment: Displacement of [3H]-spiperone from human D2 receptor expressed in Sf9 cells assessed as inhibition constant
[10] = molecular target: T4, D(4) dopamine receptor; experiment: Agonist activity at human D4R
[11] = molecular target: T1, D(4) dopamine receptor (Homo sapiens); experiment: Agonist activity at human D4R at 10 uM relative to control
[12] = molecular target: T4, D(4) dopamine receptor; experiment: Agonist activity at D4R (unknown origin)
[13] = molecular target: T4, D(4) dopamine receptor; experiment: Agonist activity at D4R (unknown origin) by camp reporter assay
[14] = molecular target: T2, D(2) dopamine receptor; experiment: Agonist activity at human D2R expressed in HEK293 cells incubated for 3 mins by FLIPR analysis; format: cell-based
[15] = molecular target: 5-hydroxytryptamine receptor 2A (Homo sapiens, UniProt P28223); experiment: Binding affinity to 5HT2A receptor (unknown origin) assessed as inhibition constant
Sequence of 5-hydroxytryptamine receptor 2A (P28223 whole entry): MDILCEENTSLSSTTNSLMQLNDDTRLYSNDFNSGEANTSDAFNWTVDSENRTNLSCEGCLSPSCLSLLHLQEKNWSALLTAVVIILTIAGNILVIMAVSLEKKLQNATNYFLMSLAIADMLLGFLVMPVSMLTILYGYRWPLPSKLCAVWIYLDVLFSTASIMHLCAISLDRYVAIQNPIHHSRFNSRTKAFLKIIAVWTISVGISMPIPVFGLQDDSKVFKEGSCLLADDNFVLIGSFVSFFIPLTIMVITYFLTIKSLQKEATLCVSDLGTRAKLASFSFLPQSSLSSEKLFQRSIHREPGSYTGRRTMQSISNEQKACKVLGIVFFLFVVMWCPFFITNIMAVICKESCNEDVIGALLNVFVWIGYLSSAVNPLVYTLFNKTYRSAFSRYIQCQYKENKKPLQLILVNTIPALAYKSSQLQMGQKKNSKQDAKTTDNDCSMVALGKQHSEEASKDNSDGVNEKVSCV

[16] = molecular target: T3, D(3) dopamine receptor; experiment: Displacement of [3H]-spiperone from human D3 receptor expressed in CHO cells assessed as inhibition constant; format: cell-based
[17] = molecular target: T1, D(4) dopamine receptor (Homo sapiens); experiment: Agonist activity at human D4R assessed as [35S] GTPgammaS binding relative to control; conditions: filed as agonist
[18] = molecular target: T4, D(4) dopamine receptor; experiment: Agonist activity at human D4R assessed as [35S] GTPgammaS binding
[19] = molecular target: T4, D(4) dopamine receptor; experiment: Displacement of [3H]-spiperone from human D4 receptor expressed in HEK293 cells assessed as inhibition constant; format: cell-based
[20] = molecular target: T4, D(4) dopamine receptor; experiment: Displacement of [3H]-methylspiperone from D4 (unknown origin) receptor expressed in HEK293T cells assessed as inhibition constant; format: cell-based
[21] = molecular target: T4, D(4) dopamine receptor; experiment: Binding affinity to D4R (unknown origin) assessed as inhibition constant
[22] = molecular target: T2, D(2) dopamine receptor; experiment: Displacement of [3H]-spiperone from human D2 receptor assessed as inhibition constant
[23] = molecular target: T4, D(4) dopamine receptor; experiment: Displacement of [3H]-spiperone from human D4 receptor expressed in CHO-K1 cells assessed as inhibition constant measured after 60 mins; format: cell-based
[24] = molecular target: T3, D(3) dopamine receptor; experiment: Displacement of [3H]-spiperone from human D3 receptor assessed as inhibition constant
[25] = molecular target: T2, D(2) dopamine receptor; experiment: Binding affinity to human D2R assessed as inhibition constant by Cheng-Prusoff equation analysis
[26] = molecular target: T1, D(4) dopamine receptor (Homo sapiens); experiment: as §1; format: cell-based

- Activity [1]: 82%
SMILES: Clc1ccc2c(c1)N=C(N1CCN(CCCCc3ccccc3)CC1)c1ccccc1N2

- Ki [2]: > 10 µM
- Ki [3]: > 10 µM
SMILES: COc1cccc(CCC2=NCCN2CCc2ccccc2)c1

- Ki [4]: 2.1 µM
- Ki [5]: 3.3 µM
- Ki [6]: 0.00066 µM
SMILES: OCc1[nH]c2ccccc2c1CN1CCN(c2ccccc2)CC1

- Ki [2]: 10.2 µM
- Ki [7]: 0.26 µM
- Ki [8]: 0.26 µM
SMILES: CCOC(=O)N1CCN(Cc2cnn(-c3ccc(Cl)cc3)c2)CC1

SMILES: CC(C)Oc1cccnc1N(C)C1CCN(Cc2ccc(I)cc2)CC1
- Ki [9]: 0.568 µM

- Activity [1]: 81%
SMILES: Clc1ccc2c(c1)N=C(N1CCN(CCCOc3ccccc3)CC1)c1ccccc1N2

SMILES: Cc1ncc(CN2CC=C(c3ccccc3)CC2)c(N)n1
- EC50 [10]: 0.205 µM
- Emax [11]: 36%
- Ki [4]: > 1 µM
- Ki [5]: > 1 µM
- Ki [6]: 0.0052 µM

- EC50 [12]: 16.9 µM
- EC50 [13]: 82 µM
SMILES: CC(=O)O[C@H]1CC(C)(C)C(=C=C/C(C)=C/C=C/C(C)=C/C=C/C=C(C)/C=C/C=C(\C)C(=O)C[C@@]23O[C@]2(C)C[C@@H](O)CC3(C)C)[C@](C)(O)C1

- EC50 [14]: 0.012 µM
SMILES: c1ccc(N2CCN(Cc3nc4ccccc4[nH]3)CC2)nc1 [ABT-724]

- Activity [1]: 78%
SMILES: Clc1ccc2c(c1)N=C(N1CCN(CCCCc3ccncc3)CC1)c1ccccc1N2

- Ki [2]: > 10 µM
- Ki [3]: 0.0014 µM
SMILES: Oc1cccc(OCCNCC2COCC(c3ccccc3)(c3ccccc3)O2)c1 (centres undefined)

- Ki [15]: 0.103 µM
SMILES: Clc1ccc2c(c1)C(N1CCN(CCc3ccccc3)CC1)=Nc1cccnc1N2

- Ki [16]: 0.082 µM
- Emax [17]: 54%
- EC50 [18]: 0.0037 µM
SMILES: COc1ccccc1N1CCN(Cc2ccc3cccccc2-3)CC1

- Ki [2]: > 10 µM
- Ki [3]: 5.4 µM
SMILES: CN(C)[C@@H](CNC(=O)NC[C@H]1Cc2ccccc21)CC1CCCCC1

- K [2]: > 1700 nM
- Ki [19]: 0.0015 µM
- Ki [3]: 3.2 µM
SMILES: Clc1ccc(OCC2CN(Cc3c[nH]c4ncccc34)CCO2)cc1 (centres undefined)

- EC50 [13]: 10.8 µM
SMILES: CCOC(=O)c1nn(-c2ccccc2)cc1CN(C)[C@@H]1CCSC1

SMILES: CC(C)N1C[C@H](NC(=O)N2Cc3ccccc3[C@@H]2C)[C@@H](C)C1
- Ki [20]: 0.0043 µM
- Ki [2]: > 10 µM
- EC50 [13]: 0.00018 µM
- Ki [3]: > 10 µM

- Ki [2]: > 10 µM
- EC50 [13]: 0.0014 µM
- Ki [3]: 0.013 µM
SMILES: COc1ccccc1OCCNCC1COCC(c2ccccc2)(c2ccccc2)O1 (centres undefined)

- Ki [4]: 22 µM
- Ki [5]: 15 µM
- Ki [6]: 0.0015 µM
SMILES: CCOC(=O)c1[nH]c2ccc(F)cc2c1CN1CCN(c2ccccc2)CC1

- Ki [6]: 0.0028 µM
SMILES: COc1cc(Cl)ccc1OCC1CN(Cc2ccc(Cl)cc2)CCO1 (centres undefined)

SMILES: NS(=O)(=O)c1ccc(N2CCN(CCC3OCCc4ccccc43)CC2)cc1 (centres undefined)
- Ki [2]: 5.15 µM
- Ki [21]: 0.0036 µM
- Ki [3]: > 2.78 µM

SMILES: N#Cc1[nH]c2ccccc2c1CN1CCN(c2ccccc2)CC1
- Ki [4]: 4.9 µM
- Ki [5]: 2.5 µM
- Ki [6]: 0.00076 µM

- Ki [22]: 4.7 µM
- Ki [23]: 0.031 µM
- Ki [24]: 3.4 µM
SMILES: Clc1ccc2c(c1)N=C(N1CCN(c3ccccc3)CC1)CCN2

SMILES: O/N=C/c1c(CN2CCN(c3ccccc3)CC2)[nH]c2ccccc12
- Ki [4]: 8.8 µM
- Ki [5]: 3.7 µM
- Ki [6]: 0.0005 µM

- Ki [2]: > 10 µM
- Ki [3]: > 10 µM
SMILES: CCOC(=O)c1sc2[nH]cn/c(=N\[C@H]3CCN(CC)C3)c2c1C

- Ki [25]: > 5.88 µM
- K [26]: 3.6 nM
SMILES: OCc1ccc(N2CCN(Cc3nc4ccccc4[nH]3)CC2)cc1Cl
